Source: US11149135B2, “Application of cyclodextrins (CDS) for remediation of perfluoroalkyl substances (PFASS)” (THE FLORIDA INTERNATIONAL UNIVERSITY BOARD OF TRUSTEES, priority 2017, dated 2021)

Columns and labels:
[1] = 19F NMR β-CD:PFOA association constants in the presence and absence of HSA; type: binding
Source text: The capacity or remediation in a human host as a therapeutic application is illustrated by the competitive binding between Human Serum Albumin (HSA) and β-CD for PFOA. Different spectroscopic techniques were employed to understand the interactions between HSA, PFOA, and β-CD. The association between PFOA and β-CD in the presence of HSA in water was characterized using ^19F NMR experiments. Changes in the ^19F chemical shift of PFOA titrated with β-CD were monitored to compare the host-guest association in the presence and absence of 35 μM HSA. The observed change in chemical shift of each fluorine peak varied differently as a function of β-CD concentration. […] The association constants for fluorine atoms closer to the PFOA carboxylate head group with β-CD are weaker in the presence of HSA, whereas the fluorine atoms towards the end of the alkyl chain (tail) experience a stronger interaction with β-CD in the presence of HSA. The 1:1 β-CD:PFOA association constant decreases in the presence of HSA likely due to the interaction of the carboxylate group of PFOA with HSA that weakens the PFOA association to β-CD.
NMR experiments were performed with a 400 MHz Bruker instrument with a quad probe (operating at 376.498 MHz for ^19F). Hexafluorobenzene was used as the internal standard with a chemical shift of −164.9 ppm.

[2] = test system: zebrafish (Danio rerio) embryo; assay: Zebrafish embryo toxicity assay; type: in vivo
Source text: To assess the potential of β-CD to attenuate the developmental and lethal effects of PFOA, zebrafish (Danio rerio) embryo are used as a toxicological model. Practical advantages of the zebrafish embryo system include ease of rearing and a high fecundity, as well as small (˜1 mm) and nearly transparent embryos, rapid (≤5-7 day) embryo development, and a fully sequenced genome. As such, the zebrafish embryo has been employed to look at a wide range of environmental contaminants in terms of acute and chronic toxicity. Acute toxicological endpoints (e.g., embryotoxicity, teratogenicity, neurotoxicity) which are readily accessible in the zebrafish embryo model are, furthermore, aligned with the reported health concerns associated with PFOA, and the system has, indeed, been used to evaluate toxicity of PFOA and related perfluorinated alkyl substances.
Perfluorooctanoic acid (PFOA, 96% purity) was purchased from Sigma-Aldrich. β-Cyclodextrin (β-CD, 98% purity) was purchased from Acros Organics. Both chemicals were used without further purification. Stock solutions of PFOA (7.25 mM, i.e., 3000 parts-per-million [ppm]), 1:1 β-CD:PFOA (β-CD: 7.25 mM, PFOA: 7.25 mM), and 2:1 β-CD:PFOA (β-CD: 14.50 mM, PFOA: 7.25 mM) were prepared with deionized water in polypropylene tubes. The solutions were sonicated until dissolution of the solids was achieved. A control solution of deionized water was also stored in a polypropylene tube. Stock solutions were subsequently diluted over a relevant range of concentrations for assessment of zebrafish embryo toxicity.
Adult zebrafish were maintained in 30-L tanks at 28° C. with 14 h:10 h light/dark cycle, and bred (from approximately 10-30 individuals) above 10-L tanks in mesh enclosures. Eggs were collected (from the bottom of tanks) within 1 h of the end of the dark cycle, and following collection and washing, transferred to plates containing E3 medium. Eggs containing dead, or obviously poor quality embryos, were removed. The remaining embryos were used, within ˜2 hour post-fertilization (hpf), for toxicity assays.
Zebrafish Embryo Toxicity Assay Assays were conducted in polypropylene 24-well plates (Evergreen Scientific, Los Angeles, Calif.) with five embryos (4- to 32-cell stage) per replicate, i.e., well (n=4), in E3 medium for a total of 20 zebrafish embryos per treatment/concentration. Embryos were exposed to a range of PFOA concentrations (30, 50, 100, 150, 200, 250 and 300 ppm) alone, and in 1:1 and 2:1 ratios with β-CD, and subsequently observed at 1, 2, 3, 4 and 7 days post-fertilization (dpf) with a dissecting light microscope to assess mortality and relevant developmental toxicity. Exposures and assessments were repeated several times, in preliminary studies, to determine relevant concentration levels for PFOA, and generally confirm results. Lethality was calculated as the concentration corresponding to 50% mortality (LC50); the LC50 values, and their 95% confidence intervals, were calculated via Probit Analysis in SPSS. In addition to lethality, inhibition of embryo development was morphometrically assessed based on the interocular distance between eyes (as a proxy for body size) of 7 dpf embryos (i.e., eleuthero-embryo stage) as measured using Olympus DP2-BSW imaging software. Apparent neurobehavioral effects were additionally measured as the percent of 7-dpf eleuthero-embryos displaying listing (i.e., falling to one side) behavior within a 30 s period (with shaking between each measurement to allow embryos to right themselves). Statistical Analyses
One-way analysis of variance (ANOVA) of the LC50 values, as well as the interocular distance and percent listing at 7 dpf, was performed in GraphPad Prism. The significance level was set at p=0.05.

[3] = 19F NMR association constants of β-CD:legacy PFAS complexes; type: binding; conditions: aqueous media, room temperature
Procedure: A detailed comprehensive Nuclear Magnetic Resonance (NMR) spectral study of the complexation of PFASs to β-CD was conducted, Weiss-Errico and O'Shea, J. Hazardous Mat. 2017 329, 57-65, with highlights herein. […] Competition studies with adamantane-carboxylic acid and phenol confirmed the persistence of the β-CD:PFAS complex. The aqueous solution pH, ionic strength, and the presence of humic acid have only a modest influence on the β-CD:PFAS complexes. Table 2 gives the association constants for β-CD complexes with a sample of the PFASs studied, including perfluoroheptanoic acid (PFHpA), perfluorooctanoic acid (PFOA), perfluorononanoic acid (PFNA), perfluorooctane sulfonate (PFOS), and perfluorooctanesulfonamide (PFOSA).

[4] = target: Human Serum Albumin (HSA) (Homo sapiens, UniProt P02768); assay: HSA fluorescence (steady state and lifetime): reversal of PFOA binding by β-CD
Sequence of Human Serum Albumin (HSA) (P02768 25-609): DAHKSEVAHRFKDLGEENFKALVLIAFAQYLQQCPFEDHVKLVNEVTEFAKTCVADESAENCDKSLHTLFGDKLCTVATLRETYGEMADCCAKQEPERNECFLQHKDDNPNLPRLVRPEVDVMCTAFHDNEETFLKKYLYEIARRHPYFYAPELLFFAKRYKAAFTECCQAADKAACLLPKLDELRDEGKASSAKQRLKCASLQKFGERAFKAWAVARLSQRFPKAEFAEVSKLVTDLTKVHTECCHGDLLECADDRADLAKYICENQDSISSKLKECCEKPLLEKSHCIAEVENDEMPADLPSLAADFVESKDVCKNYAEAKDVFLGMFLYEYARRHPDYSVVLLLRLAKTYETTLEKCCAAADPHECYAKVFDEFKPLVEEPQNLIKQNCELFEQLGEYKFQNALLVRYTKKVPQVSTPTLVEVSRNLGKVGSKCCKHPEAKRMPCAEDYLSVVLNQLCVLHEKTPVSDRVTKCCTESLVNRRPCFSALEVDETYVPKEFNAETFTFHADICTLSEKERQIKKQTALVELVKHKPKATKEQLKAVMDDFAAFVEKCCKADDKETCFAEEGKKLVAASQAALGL
Procedure: For the fluorescence spectroscopy experiments, stock solutions of PFOA (10 mM and 100 μM), β-CD (5 mM), and HSA (20 μM) were prepared with a 50 mM sodium phosphate buffer (pH 7.4) solution in polypropylene tubes
Steady state emission experiments were performed with a PC1 Fluorometer (ISS Inc, Champaign, Ill.). The excitation wavelength was 295 nm, and the emission spectra were recorded between 305 and 440 nm using 1 nm slit width for both excitation and emission. The emission spectra were corrected for the inner filter effect; however, the inner filter effect was insignificant at the HSA concentrations used in this study. Fluorescence lifetime experiments (frequency-resolved) were performed with a ChronoFD Fluorometer (ISS Inc, Champaign, Ill.). The excitation wavelength was 280 nm and 2,5-diphenyloxazole (PPO) was used as a lifetime reference. For both steady state and fluorescence lifetime experiments, the concentration of HSA was 10 βM. PFOA and β-CD were titrated into the sample at various concentrations.

[5] = β-CD:legacy PFAS; from Wilson and Verrall, Langmuir; cited from earlier work
[6] = Control experiments: interaction of internal standard with cyclodextrins; conditions: 1.44×10−3 M
Procedure: The solution consisted of 50% D2O and 50% DI H2O, adjusted to pH 7 with 0.036 M NaOH. […] Each cyclodextrin (α-, β-, γ-) was added at various stoichiometric ratios and the solution was sonicated until dissolution of the CD was achieved.

[7] = 50 mM Phosphate Buffer (pH 7.4)
[8] = 50 mM Phosphate Buffer (pH 7.4) with 35 μM HSA

O=C(O)C(F)(F)C(F)(F)C(F)(F)C(F)(F)C(F)(F)C(F)(F)C(F)(F)F [PFOA, perfluorooctanoic acid]
K1:1 β-CD:PFOA [1, 7]: 4.16 ± 0.88 × 10^5 M^−1 | K2:1 β-CD:PFOA [1, 7]: 6.42 ± 1.78 × 10^2 M^−1 | K1:1 β-CD:PFOA [1, 8]: 1.67 ± 0.33 × 10^5 M^−1 | K2:1 β-CD:PFOA [1, 8]: 9.09 ± 1.27 × 10^2 M^−1 | LC50 ([2]; 1 dpf, ppm PFOA): 47.3±3.6 ppm | interocular distance ([2]; 7 dpf, surviving embryos at sub-lethal concentrations ≤50 ppm PFOA, pooled): 0.25±0.06 mm | percent of surviving embryos listing within a 30 second period ([2]; 7 dpf, ≤50 ppm PFOA, pooled): 96±9% | lethality at 24 hpf ([2]; PFOA concentrations above 100 ppm): all embryos dead | embryos showing discernible deformities ([2]; by 7 dpf, bent spines and edemas): ~5% | hatching rates ([2]; surviving embryos, hatched by 3 dpf): unaffected | K1:1 association constant ([3]; 1:1 β-CD:PFAS complex): 5.00 ± 0.10 × 10^5 M^−1 | K2:1 association constant ([3]; 2:1 β-CD:PFAS complex): 1.20 ± 0.50 × 10^3 M^−1

OC[C@H]1O[C@@H]2O[C@H]3[C@H](O)[C@@H](O)[C@@H](O[C@H]4[C@H](O)[C@@H](O)[C@@H](O[C@H]5[C@H](O)[C@@H](O)[C@@H](O[C@H]6[C@H](O)[C@@H](O)[C@@H](O[C@H]7[C@H](O)[C@@H](O)[C@@H](O[C@H]8[C@H](O)[C@@H](O)[C@@H](O[C@H]1[C@H](O)[C@H]2O)O[C@@H]8CO)O[C@@H]7CO)O[C@@H]6CO)O[C@@H]5CO)O[C@@H]4CO)O[C@@H]3CO [β-CD, β-Cyclodextrin]
toxicity of β-CD alone ([2]; tested range up to maximum concentration 1645 ppm (1.45 mM) β-CD): No discernible toxicity | effect on PFOA binding to HSA, steady state fluorescence ([4]; 10 μM HSA titrated with PFOA, 1:1 and 2:1 β-CD:PFOA ratios): cannot completely reverse the first PFOA binding to HSA | fluorescence intensity and λmax of HSA with PFOA ([4]; 10 μM HSA, 500 μM PFOA, 5:1 β-CD:PFOA ratio (2500 μM β-CD)): return to the values observed for HSA in the absence of PFOA | fluorescence lifetime τ and α values of HSA with PFOA ([4]; 10 μM HSA, 50:1 PFOA:HSA, 5:1 β-CD:PFOA ratio): identical to those determined for HSA in the absence of PFOA

O=C(O)C(F)(F)C(F)(F)C(F)(F)C(F)(F)C(F)(F)F [PFHxA, perfluorohexanoic acid]
Legacy PFAS Kassoc [5]: 2.35 +/− 0.46 × 10^4 M^−1

Fc1c(F)c(F)c(F)c(F)c1F [hexafluorobenzene, Hexafluorobenzene]
interaction with cyclodextrins [6]: does not significantly interact with cyclodextrins
